Assay results reported in patent US20240376084A1, “INHIBITORS OF ALPHA-HEMOLYSIN OF STAPHYLOCOCCUS AUREUS” (Helmholtz-Zentrum Fur Infektionsforschung GmbH, priority 2021, published 2024).

Legend:
[1] = molecular target: S. aureus Alpha hemolysin (Staphylococcus aureus, UniProt P09616); assay: cell-based; conditions: A549-LDH Assay activity
[2] = molecular target: hemolysin alpha from Staphylococcus aureus (Staphylococcus aureus, UniProt P09616); assay: cell-based
Sequence of hemolysin alpha from Staphylococcus aureus (P09616 27-319 limits assumed): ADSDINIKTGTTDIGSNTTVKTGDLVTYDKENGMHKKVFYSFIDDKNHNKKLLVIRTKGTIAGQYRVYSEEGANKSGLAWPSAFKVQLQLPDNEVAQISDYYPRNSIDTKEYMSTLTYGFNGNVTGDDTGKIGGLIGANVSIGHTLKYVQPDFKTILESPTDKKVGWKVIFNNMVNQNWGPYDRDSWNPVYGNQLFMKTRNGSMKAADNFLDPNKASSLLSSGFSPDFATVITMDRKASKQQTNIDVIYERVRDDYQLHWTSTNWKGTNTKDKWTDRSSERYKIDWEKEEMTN

Sequence of S. aureus Alpha hemolysin (P09616 27-319 limits assumed): as above

In the case of CC(C)c1ccc(NS(=O)(=O)c2cc3[nH]c(=O)c(=O)[nH]c3cc2Cl)cc1 [Compound 142, 7-chloro-N-(4-isopropylphenyl)-2,3-dioxo-1,2,3,4-tetrahydroquinoxaline-6-sulfonamide], the EC50 [1] is reported as 100 to 1000 nM and the IC50 [2] is reported as 100 to 1000 nM.
Cc1cc2[nH]c(=O)c(=O)[nH]c2cc1S(=O)(=O)Nc1ccc(-c2ccc(F)c(Cl)c2)c(Cl)c1 [Compound 11, N-(2,3′-dichloro-4′-fluoro-[1,1′-biphenyl]-4-yl)-7-methyl-2,3-dioxo-1,2,3,4-tetrahydroquinoxaline-6-sulfonamide] was tested, and the EC50 [1] was 100 to 1000 nM and the IC50 [2] was < 30 nM.
Cc1cccc(-c2ccc(NS(=O)(=O)c3cc4[nH]c(=O)c(=O)[nH]c4cc3C)cc2Cl)c1 [Compound 23, N-(2-chloro-3′-methyl-[1,1′-biphenyl]-4-yl)-7-methyl-2,3-dioxo-1,2,3,4-tetrahydroquinoxaline-6-sulfonamide] was tested, and the EC50 [1] was 30 to 100 nM and the IC50 [2] was < 30 nM.
O=c1[nH]c2cc(Cl)c(S(=O)(=O)Nc3ccc(C(F)(F)F)c(Cl)c3)cc2[nH]c1=O [Compound 143, 7-chloro-N-(3-chloro-4-(trifluoromethyl)phenyl)-2,3-dioxo-1,2,3,4-tetrahydroquinoxaline-6-sulfonamide] was tested, and the EC50 [1] was 1000 to 6000 nM and the IC50 [2] was 100 to 1000 nM.
In the case of Cc1cc2[nH]c(=O)c(=O)[nH]c2cc1S(=O)(=O)Nc1ccc(-c2cccc(N)c2)c(Cl)c1 [Compound 311, N-(3′-amino-2-chloro-[1,1′-biphenyl]-4-yl)-7-methyl-2,3-dioxo-1,2,3,4-tetrahydroquinoxaline-6-sulfonamide], the EC50 [1] is reported as < 30 nM and the EC50 [2] is reported as 30 to 100 nM.
Cc1cc2[nH]c(=O)c(=O)[nH]c2cc1S(=O)(=O)Nc1ccc2ccccc2c1 [Compound 60, 7-methyl-N-(naphthalen-2-yl)-2,3-dioxo-1,2,3,4-tetrahydroquinoxaline-6-sulfonamide] was tested, and the EC50 [1] was 30 to 100 nM and the IC50 [2] was 30 to 100 nM.
CNc1cc2[nH]c(=O)c(=O)[nH]c2cc1S(=O)(=O)Nc1ccc(OC(F)(F)F)cc1 [Compound 381, 7-(methylamino)-2,3-dioxo-N-[4-(trifluoromethoxy)phenyl]-1,4-dihydroquinoxaline-6-sulfonamide] showed an EC50 [1] of 100 to 1000 nM and an EC50 [2] of 100 to 1000 nM.
In the case of Cc1cc2[nH]c(=O)c(=O)[nH]c2cc1S(=O)(=O)Nc1ccc(-c2ccoc2)c(Cl)c1 [Compound 22, N-(3-chloro-4-(furan-3-yl)phenyl)-7-methyl-2,3-dioxo-1,2,3,4-tetrahydroquinoxaline-6-sulfonamide], the EC50 [1] is reported as 100 to 1000 nM and the IC50 [2] is reported as < 30 nM.
In the case of Cc1cc2[nH]c(=O)c(=O)[nH]c2cc1S(=O)(=O)Nc1ccc(-c2ccc(F)cc2)c(Cl)c1 [Compound 3, N-(2-chloro-4′-fluoro-[1,1′-biphenyl]-4-yl)-7-methyl-2,3-dioxo-1,2,3,4-tetrahydroquinoxaline-6-sulfonamide], the EC50 [1] is reported as 30 to 100 nM and the IC50 [2] is reported as < 30 nM.
Work on Cc1cc2[nH]c(=O)c(=O)[nH]c2cc1S(=O)(=O)Nc1ccc(-c2cccc(OC(F)(F)F)c2)c(Cl)c1 [Compound 339, N-[3-chloro-4-[3-(trifluoromethoxy)phenyl]phenyl]-7-methyl-2,3-dioxo-1,4-dihydroquinoxaline-6-sulfonamide] yielded an EC50 [1] of 100 to 1000 nM and an EC50 [2] of 30 to 100 nM.
For COc1cc2[nH]c(=O)c(=O)[nH]c2cc1S(=O)(=O)Nc1ccc(C(F)(F)F)cc1 [Compound 400, 7-methoxy-2,3-dioxo-N-[4-(trifluoromethyl)phenyl]-1,4-dihydroquinoxaline-6-sulfonamide], the EC50 [1] was 100 to 1000 nM and the EC50 [2] was 1000 to 3500 nM.
COc1ccc(-c2ccc(NS(=O)(=O)c3cc4[nH]c(=O)c(=O)[nH]c4cc3C)cc2Cl)cc1C#N [Compound 289, N-[3-chloro-4-(3-cyano-4-methoxy-phenyl)phenyl]-7-methyl-2,3-dioxo-1,4-dihydroquinoxaline-6-sulfonamide] showed an EC50 [1] of 100 to 1000 nM and an EC50 [2] of 30 to 100 nM.
Cc1cc2[nH]c(=O)c(=O)[nH]c2c(F)c1S(=O)(=O)Nc1ccc(-c2cccc(Cl)c2)c(Cl)c1 [Compound 43, N-(2,3′-dichloro-[1,1′-biphenyl]-4-yl)-5-fluoro-7-methyl-2,3-dioxo-1,2,3,4-tetrahydroquinoxaline-6-sulfonamide] gave an EC50 [1] of 1000 to 6000 nM and an IC50 [2] of 30 to 100 nM.
